Data taken from US10202343B2, “MIF modulators” (YALE UNIVERSITY, priority 2008, dated 2019).
Read-outs that look alike come from different tables or passages of the source. Each block holds one molecule with its values, some of them ahead of it.

Legend:
[1] = target: T1, MIF-CD74 Binding (biotin-labeled recombinant human MIF, recombinant human MIF receptor CD74 ectodomain) (Homo sapiens, UniProt P14174); experiment: MIF-CD74 binding (capture) assay; design: concentration of C74 % MaxInhib (number after @): unit not given here; conditions: for CD74 % MaxInhib / C74 % MaxInhib: number before @; for concentration of C74 % MaxInhib (number after @) / C74 % MaxInhib: Table 18
T1 sequence (P14174 2-115 limits assumed): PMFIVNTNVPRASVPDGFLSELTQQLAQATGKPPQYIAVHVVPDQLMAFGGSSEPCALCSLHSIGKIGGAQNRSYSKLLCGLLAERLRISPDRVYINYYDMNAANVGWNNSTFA

[2] = target: T2, Human MIF (MIF tautomerase activity) (Homo sapiens, UniProt P14174); experiment: HPP tautomerase assay; assay type: biochemical; conditions: for HPP Max Inhib / HPP % MaxInhib: number before @; for IC50: read-out: HPP IC50
T2 construct: made in house
T2 sequence (P14174 2-115 limits assumed): T1 sequence (P14174 2-115 limits assumed)

SMILES: O=C(c1cc2ccccc2o1)c1cc2cc(F)ccc2o1 [MIF-073]
concentration of CD74 % MaxInhib (number after @) ([1]; Table 13): 0.12 µM
CD74 % MaxInhib ([1]; Table 13): 17%
concentration of HPP Max Inhib (number after @) ([2]; Table 13): 700 µM
HPP Max Inhib ([2]; Table 13, data cell c5): 33%

SMILES: COc1cccc(Cc2cn(-c3ccc(O)cc3)nn2)c1 [MIF-074]
concentration of C74 % MaxInhib (number after @) [1]: 0.24
C74 % MaxInhib [1]: 8%
concentration of HPP Max Inhib (number after @) ([2]; Table 18): 1000
HPP Max Inhib ([2]; Table 18): 40%

SMILES: COc1cccc(C(=O)c2cn(-c3ccc(O)cc3)nn2)c1 [MIF-076]
concentration of C74 % MaxInhib (number after @) [1]: 0.0078
C74 % MaxInhib [1]: 12%
IC50 ([2]; Table 18): 790 µM

SMILES: Cc1ccc2cc(C(=O)c3cc4ccccc4o3)oc2c1 [MIF-077]
concentration of CD74 % MaxInhib (number after @) ([1]; Table 13): 0.24 µM
CD74 % MaxInhib ([1]; Table 13): 16%
concentration of HPP Max Inhib (number after @) ([2]; Table 13): 1000 µM
HPP Max Inhib ([2]; Table 13, data cell c5): 30%

SMILES: Cc1cccc(Cc2cn(-c3ccc(O)cc3)nn2)c1 [MIF-079]
concentration of C74 % MaxInhib (number after @) [1]: 0.078
C74 % MaxInhib [1]: 30%
IC50 ([2]; Table 18): 475 µM

SMILES: COc1ccc2cc(C(=O)N3CCc4ccccc43)oc2c1 [MIF-083]
concentration of CD74 % MaxInhib (number after @) ([1]; Table 14): 0.078 µM
CD74 % MaxInhib ([1]; Table 14): 12%
concentration of HPP Max Inhib (number after @) ([2]; Table 14): 3 µM
HPP Max Inhib ([2]; Table 14): 33%

SMILES: COc1ccc(Cc2cn(-c3ccc(O)cc3)nn2)cc1 [MIF-086]
concentration of C74 % MaxInhib (number after @) [1]: 0.078
C74 % MaxInhib [1]: 36%
IC50 ([2]; Table 18): 65 µM

SMILES: Oc1ccc(Cc2cn(-c3ccc(O)cc3)nn2)cc1 [MIF-087]
concentration of C74 % MaxInhib (number after @) [1]: 0.078
C74 % MaxInhib [1]: 23%
IC50 ([2]; Table 18): 690 µM

More lines, now with the values ahead:

concentration of CD74 % MaxInhib (number after @) ([1]; Table 14): 0.24 µM
CD74 % MaxInhib ([1]; Table 14): 30%
concentration of HPP Max Inhib (number after @) ([2]; Table 14): 5 µM
HPP Max Inhib ([2]; Table 14): 23%
SMILES: COc1ccc2oc(C(=O)N3CCc4ccccc43)cc2c1 [MIF-088]

concentration of CD74 % MaxInhib (number after @) ([1]; Table 14): 0.12 µM
CD74 % MaxInhib ([1]; Table 14): 30%
concentration of HPP Max Inhib (number after @) ([2]; Table 14): 1 µM
HPP Max Inhib ([2]; Table 14): 19%
SMILES: O=C(c1cc2cc(F)ccc2o1)N1CCc2ccccc21 [MIF-089]

concentration of C74 % MaxInhib (number after @) [1]: 0.078
C74 % MaxInhib [1]: 22%
IC50 ([2]; Table 18): 70 µM
SMILES: COc1ccc(Cc2cn(-c3ccc(O)cc3)nn2)cc1OC [MIF-090]

concentration of CD74 % MaxInhib (number after @) ([1]; Table 14): 0.95 µM
CD74 % MaxInhib ([1]; Table 14): 33%
IC50 ([2]; Table 14): 760 µM
SMILES: Cc1ccc2c(c1)CCN2C(=O)c1cc2ccccc2o1 [MIF-094]

concentration of CD74 % MaxInhib (number after @) ([1]; Table 14): 0.039 µM
CD74 % MaxInhib ([1]; Table 14): 33%
IC50 ([2]; Table 14): 910 µM
SMILES: Cc1ccc2c(c1)N(C(=O)c1cc3ccccc3o1)CC2 [MIF-095]

concentration of CD74 % MaxInhib (number after @) ([1]; Table 14): 1.87 µM
CD74 % MaxInhib ([1]; Table 14): 19%
IC50 ([2]; Table 14): 1360 µM
SMILES: O=C(c1cc2ccccc2o1)N1CCc2cc(F)ccc21 [MIF-096]

concentration of CD74 % MaxInhib (number after @) ([1]; Table 7): 0.078 µM
CD74 % MaxInhib ([1]; Table 7, data cell c7): 11%
concentration of HPP % MaxInhib (number after @) ([2]; Table 7): 0.1 µM
HPP % MaxInhib ([2]; Table 7, data cell c6): 13%
SMILES: Clc1ccc2nc(-c3ccccc3)oc2c1 [MIF-120]

concentration of CD74 % MaxInhib (number after @) ([1]; Table 7): 0.078 µM
CD74 % MaxInhib ([1]; Table 7, data cell c7): 27%
HPP % MaxInhib ([2]; Table 7, data cell c6): 43%
SMILES: Clc1ccc(-c2nc3ccc(Cl)cc3o2)cc1 [MIF-121]

concentration of CD74 % MaxInhib (number after @) ([1]; Table 7): 3.76 µM
CD74 % MaxInhib ([1]; Table 7, data cell c7): 13%
HPP % MaxInhib ([2]; Table 7, data cell c6): 31%
SMILES: Clc1ccc(-c2nc3cc(Cl)ccc3o2)cc1 [MIF-122]

concentration of CD74 % MaxInhib (number after @) ([1]; Table 7): 3.76 µM
CD74 % MaxInhib ([1]; Table 7, data cell c7): 26%
concentration of HPP % MaxInhib (number after @) ([2]; Table 7): 50 µM
HPP % MaxInhib ([2]; Table 7, data cell c6): 14%
SMILES: Cc1ccc2nc(-c3ccc(Cl)cc3)oc2c1 [MIF-123]

concentration of CD74 % MaxInhib (number after @) ([1]; Table 7): 0.078 µM
CD74 % MaxInhib ([1]; Table 7, data cell c7): 11%
concentration of HPP % MaxInhib (number after @) ([2]; Table 7): 1000 µM
HPP % MaxInhib ([2]; Table 7, data cell c6): 29%
SMILES: Cc1ccc2oc(-c3ccc(Cl)cc3)nc2c1 [MIF-124]

concentration of CD74 % MaxInhib (number after @) ([1]; Table 9): 0.12 µM
CD74 % MaxInhib ([1]; Table 9): 19%
HPP % MaxInhib ([2]; Table 9): 45%
SMILES: O=C1c2cc(F)ccc2CN1c1ccc(Cl)cc1 [MIF-125]

concentration of CD74 % MaxInhib (number after @) ([1]; Table 9): 0.078 µM
CD74 % MaxInhib ([1]; Table 9): 7%
concentration of HPP % MaxInhib (number after @) ([2]; Table 9): 100 µM
HPP % MaxInhib ([2]; Table 9): 32%
SMILES: O=C1c2ccc(F)cc2CN1c1ccc(Cl)cc1 [MIF-126]
